Experimental data: ChEMBL document CHEMBL4680262, “Development of oxathiino[6,5-b]pyridine 2,2-dioxide derivatives as selective inhibitors of tumor-related carbonic anhydrases IX and XII” (Eur J Med Chem, 2020)
pIC50, pKi: −log10 of the molar value.

Legend:
Carbonic anhydrase 2 = Carbonic anhydrase 2 (Homo sapiens, UniProt P00918); test: Inhibition of recombinant human carbonic anhydrase 2 incubated for 6 hrs prior to testing measured for 10 to 100 secs by phenol red-based stopped-flow CO2 hydration assay
Carbonic anhydrase 9 = Carbonic anhydrase 9 (Homo sapiens, UniProt Q16790); test: Inhibition of recombinant human carbonic anhydrase 9 incubated for 6 hrs prior to testing measured for 10 to 100 secs by phenol red-based stopped-flow CO2 hydration assay
Carbonic anhydrase 1 = Carbonic anhydrase 1 (Homo sapiens, UniProt P00915); test: Inhibition of recombinant human carbonic anhydrase 1 incubated for 6 hrs prior to testing measured for 10 to 100 secs by phenol red-based stopped-flow CO2 hydration assay
A549 = test: Cytotoxicity against human A549 cells assessed as reduction in cell viability incubated for 48 hrs by MTT assay; type: functional, cell-based; conditions: A549, 48 h
HeLa = test: Cytotoxicity against human HeLa cells assessed as reduction in cell viability incubated for 48 hrs by MTT assay; type: functional, cell-based
MCF7 = test: Cytotoxicity against human MCF7 cells assessed as reduction in cell viability incubated for 48 hrs by MTT assay; type: functional, cell-based; conditions: MCF7, 48 h

Sequence of Carbonic anhydrase 1 (P00915 whole entry): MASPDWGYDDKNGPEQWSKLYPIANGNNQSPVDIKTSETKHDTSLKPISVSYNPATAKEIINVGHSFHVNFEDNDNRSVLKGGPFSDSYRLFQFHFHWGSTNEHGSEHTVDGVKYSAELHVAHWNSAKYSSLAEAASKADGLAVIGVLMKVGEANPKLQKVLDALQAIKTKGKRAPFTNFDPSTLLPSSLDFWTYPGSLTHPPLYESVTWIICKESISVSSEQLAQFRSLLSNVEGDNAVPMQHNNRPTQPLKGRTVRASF

Structure (SMILES) | pKi (Carbonic anhydrase 2) | pKi (Carbonic anhydrase 9) | pKi (Carbonic anhydrase 1) | pIC50 (A549) | pIC50 (HeLa) | pIC50 (MCF7)
O=S1(=O)C=Cc2cc(-c3ccc(Cl)cc3)cnc2O1 | < 4.00 | 7.06 | < 4.00 | – | – | –
O=S1(=O)C=Cc2cc(-c3ccc(OC(F)(F)F)cc3)cnc2O1 | < 4.00 | 6.70 | < 4.00 | – | – | –
O=S1(=O)C=Cc2cc(-c3cc(Cl)cc(Cl)c3)cnc2O1 | < 4.00 | 7.24 | < 4.00 | 4.85 | 5.32 | 4.70
O=S1(=O)C=Cc2cc(-c3cccc4ccccc34)cnc2O1 | – | 6.66 | – | – | – | –
COc1cccc(-c2cnc3c(c2)C=CS(=O)(=O)O3)c1 | < 4.00 | 6.86 | < 4.00 | – | – | –
O=S1(=O)C=Cc2cccnc2O1 | 4.85 | 6.77 | 4.19 | – | – | –
CC(C)(C)c1ccc(-c2cnc3c(c2)C=CS(=O)(=O)O3)cc1 | – | 7.50 | – | 3.83 | 3.77 | < 3.30

Second part, led by results:

pKi (Carbonic anhydrase 2) | pKi (Carbonic anhydrase 9) | pKi (Carbonic anhydrase 1) | Structure (SMILES) | pIC50 (A549) | pIC50 (HeLa) | pIC50 (MCF7)
– | 7.15 | – | O=S1(=O)C=Cc2cc(-c3ccc(C(F)(F)F)cc3)cnc2O1 | 4.11 | 4.38 | 4.12
< 4.00 | 7.06 | < 4.00 | COc1ccc(-c2cnc3c(c2)C=CS(=O)(=O)O3)cc1 | – | – | –
< 4.00 | 6.68 | < 4.00 | O=S1(=O)C=Cc2cc(-c3ccc(-c4ccccc4)cc3)cnc2O1 | – | – | –
< 4.00 | 6.87 | < 4.00 | O=S1(=O)C=Cc2cc(-c3ccccc3)cnc2O1 | – | – | –
